# Target: T1, human PAH with the R408W mutation (Homo sapiens, UniProt P00439, R408W)
# T1 construct: expressed in transfected cells
# T1 sequence (P00439 1-452 R408W): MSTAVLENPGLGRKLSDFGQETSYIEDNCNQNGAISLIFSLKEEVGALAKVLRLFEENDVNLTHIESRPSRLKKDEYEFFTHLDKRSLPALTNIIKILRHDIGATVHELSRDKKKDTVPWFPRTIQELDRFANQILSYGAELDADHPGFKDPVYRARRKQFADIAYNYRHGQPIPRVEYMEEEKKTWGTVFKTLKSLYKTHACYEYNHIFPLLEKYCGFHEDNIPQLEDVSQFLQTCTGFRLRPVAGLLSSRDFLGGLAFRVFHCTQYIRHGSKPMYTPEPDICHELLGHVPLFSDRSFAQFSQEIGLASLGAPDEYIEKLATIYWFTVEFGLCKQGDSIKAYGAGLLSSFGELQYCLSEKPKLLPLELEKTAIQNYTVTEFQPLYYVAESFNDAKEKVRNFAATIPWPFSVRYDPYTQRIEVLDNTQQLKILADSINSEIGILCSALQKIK
# Assay: Cell Based Phenylalanine Flux Assay
# Parameters: scale not given here
# Details: A375 R408W cells, 24 hrs with compound, then 20 μM sepiapterin and 800 μM 13C9,15N-Phenylalanine for 4 hours; 13C-Tyrosine by LC-MS; average where tested multiple times
row,AC50,Structure (SMILES)
1,"E, E",O=C(c1ccnn1C(F)F)N1CCc2[nH]cnc2C1c1ncc2ccccc2n1 (centres unmarked)
2,"E, E","Cc1ncoc1C(=O)N1C[C@@H](C)c2[nH]cnc2[C@@H]1c1cc2ccccc2cn1 (single isomer, unassigned)"
3,"E, E","COCCNc1nnc(C(=O)N2CC(C)c3[nH]cnc3C2c2cc3ccccc3cn2)o1 [(4S, 7S) diastereomer of 5-[4-(isoquinolin-3-yl)-7-methyl-1H]"

# Same assay, conditions: A375 R408W cells, 24 hrs with compound, then 20 μM sepiapterin and 800 μM 13C9,15N-Phenylalanine for 4 hours; 13C-Tyrosine by LC-MS; average where tested multiple times; read-out: AC50
row,AC50,Structure (SMILES)
1,> 5000 nM,"C[C@H]1CN(c2nnc(-c3ccccn3)o2)[C@@H](c2cc3ccccc3cn2)c2nc[nH]c21 (single isomer, unassigned)"
2,1000 to 5000 nM,Cc1nc(CCN2CC(F)C2)oc1C(=O)N1CCc2[nH]cnc2C1c1ccc2ccccc2n1 (centres unmarked)
3,1000 to 5000 nM,O=C(CCc1nccs1)N1CCc2[nH]cnc2C1c1cc2ccccc2nn1 (centres unmarked)
4,1000 to 5000 nM,CC(C)(O)c1ncc(C(=O)N2CCc3[nH]cnc3C2c2ccc3ccccc3n2)s1 (centres unmarked)
5,1000 to 5000 nM,Cn1ccc(-c2nnc(C(=O)N3CCc4[nH]cnc4C3c3cc4ccccc4nn3)o2)n1 (centres unmarked)
6,1000 to 5000 nM,O=C(c1nnc(COC(F)(F)F)o1)N1CCc2[nH]cnc2C1c1ccc2ccccc2n1 (centres unmarked)
7,1000 to 5000 nM,O=C(c1nnc(NC2CC2)o1)N1CCc2[nH]cnc2C1c1ccc2ccccc2n1 (centres unmarked)
8,1000 to 5000 nM,Cn1cc(-c2ncc(C(=O)N3CCc4[nH]cnc4C3c3ncc4ccccc4n3)o2)cn1 (centres unmarked)
9,1000 to 5000 nM,COCc1ccc2c(C(=O)N3CC(C)c4[nH]cnc4C3c3cc4ccccc4cn3)cnn2c1 (centres unmarked)
10,> 5000 nM,O=C(c1nnc(CCO)o1)N1CCc2[nH]cnc2C1c1ccc2ccccc2n1 (centres unmarked)
11,> 5000 nM,CC(C)(O)c1cc(C(=O)N2CCc3[nH]cnc3C2c2ccc3ccccc3n2)no1 (centres unmarked)
12,1000 to 5000 nM,O=C(c1cnc(-c2ccccn2)o1)N1CCc2[nH]cnc2C1c1cc2ccccc2nn1 (centres unmarked)
13,> 5000 nM,CC(C)(O)c1cc(C(=O)N2CCc3[nH]cnc3C2c2ccc3ccccc3n2)on1 (centres unmarked)
14,> 5000 nM,O=C(Cn1cncn1)N1CCc2[nH]cnc2C1c1cn2ccccc2n1 (centres unmarked)
15,1000 to 5000 nM,O=C(c1nnc(-c2ncccn2)o1)N1CCc2[nH]cnc2C1c1ncc2ccccc2n1 (centres unmarked)
16,1000 to 5000 nM,O=C(c1nnc(CCN2CCOCC2)o1)N1CCc2[nH]cnc2C1c1ccc2ccccc2n1 (centres unmarked)
17,> 5000 nM,CC1CN(C(=O)c2nnc(-c3cnn(C)c3)o2)C(c2cc3ccccc3cn2)c2nc[nH]c21 (centres unmarked)
18,1000 to 5000 nM,CC(C)(O)c1ncc(C(=O)N2CCc3[nH]cnc3C2c2cc3ccccc3cn2)o1 (centres unmarked)
19,1000 to 5000 nM,O=C(c1ccn[nH]1)N1CCc2[nH]cnc2C1c1ccc2ccccc2n1 (centres unmarked)
20,> 5000 nM,COCc1ncc(C(=O)N2CCc3[nH]cnc3C2c2ccc3ccccc3n2)s1 (centres unmarked)

# Same assay, conditions: A375 cells expressing human R408W PAH; 24 hrs compound incubation; 13C-Tyrosine by LC-MS; average where tested multiple times; read-out: AC50
row,AC50,Structure (SMILES)
1,< 500 nM,"O=C(CC1CC1)N1CCc2[nH]cnc2[C@H]1c1cn2ccccc2n1 [Example 238, (R)-2-cyclopropyl-1-(4-(imidazo[1,2-a]pyridin-2-yl)-6,7-dihydro-1H-imidazo[4,5-c]pyridin-5(4H)-yl)ethanone]"
2,< 500 nM,"O=C(c1nsc2ccccc12)N1CCc2[nH]cnc2[C@H]1c1cc2ccccc2cn1 [Example 358, (R)-benzo[d]isothiazol-3-yl(4-(isoquinolin-3-yl)-6,7-dihydro-1H-imidazo[4,5-c]pyridin-5(4H)-yl)methanone]"
3,500 to 1000 nM,"C[C@H]1CN(C(=O)c2cnco2)[C@H](c2cc3ccccc3cn2)c2nc[nH]c21 [Example 503, ((4R,7S)-4-(isoquinolin-3-yl)-7-methyl-6,7-dihydro-1H-imidazo[4,5-c]pyridin-5(4H)-yl)(oxazol-5-yl)methanone]"
4,> 5000 nM,"C[C@H]1CN(C(=O)c2cnc(-c3ccccn3)o2)[C@@H](c2cc3ccccc3cn2)c2nc[nH]c21 [Example 382, ((4S,7S)-4-(isoquinolin-3-yl)-7-methyl-6,7-dihydro-1H-imidazo[4,5-c]pyridin-5(4H)-yl)(2-(pyridin-2-yl)oxazol-5-yl)methanone]"
5,> 5000 nM,"O=C(c1cnc(-c2ccccn2)s1)N1CCc2[nH]cnc2[C@@H]1c1ccc2ccccc2c1 [Example 224, (S)-(4-(naphthalen-2-yl)-6,7-dihydro-1H-imidazo[4,5-c]pyridin-5(4H)-yl)(2-(pyridin-2-yl)thiazol-5-yl)methanone]"
6,< 500 nM,"Cn1cc(-c2ccc3c(C(=O)N4CCc5[nH]cnc5[C@H]4c4cc5ccccc5cn4)cnn3c2)cn1 [Example 456, (R)-(4-(isoquinolin-3-yl)-6,7-dihydro-1H-imidazo[4,5-c]pyridin-5(4H)-yl)(6-(1-methyl-1H-pyrazol-4-yl)pyrazolo[1,5-a]pyridin-3-yl)methanone]"
7,< 500 nM,"Cn1ncnc1C(=O)N1CCc2[nH]cnc2[C@H]1c1ncc2ccccc2n1 [Example 184, (S)-(1-methyl-1H-1,2,4-triazol-5-yl)(4-(quinazolin-2-yl)-6,7-dihydro-1H-imidazo[4,5-c]pyridin-5(4H)-yl)methanone]"
8,< 500 nM,"O=C(c1cnn2cccc(F)c12)N1CCc2[nH]cnc2[C@H]1c1cc2ccccc2cn1 [Example 357, (R)-(4-fluoropyrazolo[1,5-a]pyridin-3-yl)(4-(isoquinolin-3-yl)-6,7-dihydro-1H-imidazo[4,5-c]pyridin-5(4H)-yl)methanone]"
9,500 to 1000 nM,"Cc1nc(C2(O)CCC2)oc1C(=O)N1CCc2[nH]cnc2C1c1ccc2ccccc2n1 (stereo in doubt) [Example 101, (R)-(2-(1-hydroxycyclobutyl)-4-methyloxazol-5-yl)(4-(quinolin-2-yl)-6,7-dihydro-1H-imidazo[4,5-c]pyridin-5(4H)-yl)methanone]"
10,< 500 nM,"C[C@H](O)c1nc(C(F)F)c(C(=O)N2CCc3[nH]cnc3C2c2ccc3ccccc3n2)o1 (stereo in doubt) [Example 122, (4-(difluoromethyl)-2-((S)-1-hydroxyethyl)oxazol-5-yl)((R)-4-(quinolin-2-yl)-6,7-dihydro-1H-imidazo[4,5-c]pyridin-5(4H)-yl)methanone]"
11,< 500 nM,"O=C(c1cnn2ccccc12)N1CCc2[nH]cnc2[C@H]1c1cc2ccccc2cn1 [Example 431, (R)-(4-(isoquinolin-3-yl)-6,7-dihydro-1H-imidazo[4,5-c]pyridin-5(4H)-yl)(pyrazolo[1,5-a]pyridin-3-yl)methanone]"
12,< 500 nM,"O=C(c1cnc(-c2ccc(F)cn2)s1)N1CCc2[nH]cnc2C1c1cc2ccccc2cn1 (stereo in doubt) [Example 312, (R)-(2-(5-fluoropyridin-2-yl)thiazol-5-y1)(4-(isoquinolin-3-yl)-6,7-dihydro-1H-imidazo[4,5-c]pyridin-5(4H)-yl)methanone]"
13,1000 to 5000 nM,"CC(C)(O)c1noc(C(=O)N2CCc3[nH]cnc3[C@H]2c2cc3ccccc3cn2)n1 [Example 422, (R)-(3-(2-hydroxypropan-2-yl)-1,2,4-oxadiazol-5-yl)(4-(isoquinolin-3-yl)-6,7-dihydro-1H-imidazo[4,5-c]pyridin-5(4H)-yl)methanone]"
14,< 500 nM,"O=C(c1nnc(-c2ccccn2)o1)N1CCc2[nH]cnc2C1c1ccc2ccccc2n1 (stereo in doubt) [Example 45, (R)-(5-(pyridin-2-yl)-1,3,4-oxadiazol-2-yl)(4-(quinolin-2-yl)-6,7-dihydro-1H-imidazo[4,5-c]pyridin-5(4H)-yl)methanone]"
15,< 500 nM,"O=C(c1nnc(-c2ccn(C(F)F)n2)o1)N1CCc2[nH]cnc2[C@H]1c1ncc2ccccc2n1 [Example 189, (S)-(5-(1-(difluoromethyl)-1H-pyrazol-3-yl)-1,3,4-oxadiazol-2-yl)(4-(quinazolin-2-yl)-6,7-dihydro-1H-imidazo[4,5-c]pyridin-5(4H)-yl)methanone]"
16,500 to 1000 nM,"O=C(c1cnco1)N1CCc2[nH]cnc2[C@H]1c1ccc2ccccc2c1 [Example 283, (R)-(4-(naphthalen-2-yl)-6,7-dihydro-1H-imidazo[4,5-c]pyridin-5(4H)-yl)(oxazol-5-yl)methanone]"
17,500 to 1000 nM,"CCn1cnnc1C(=O)N1CCc2[nH]cnc2C1c1ccc2ccccc2n1 (stereo in doubt) [Example 270, (R)-(4-ethyl-4H-1,2,4-triazol-3-yl)(4-(quinolin-2-yl)-6,7-dihydro-1H-imidazo[4,5-c]pyridin-5(4H)-yl)methanone]"
18,1000 to 5000 nM,"C[C@H]1CN(C(=O)c2nnc(-c3ccc(F)cn3)o2)[C@H](c2cc3ccccc3cn2)c2nc[nH]c21 [Example 496, (5-(5-fluoropyridin-2-yl)-1,3,4-oxadiazol-2-yl)((4R,7S)-4-(isoquinolin-3-yl)-7-methyl-6,7-dihydro-1H-imidazo[4,5-c]pyridin-5(4H)-yl)methanone]"
19,1000 to 5000 nM,"O=C(C1CC1)N1CCc2[nH]cnc2[C@H]1c1cc2ccccc2nn1 [Example 215, (S)-(4-(cinnolin-3-yl)-6,7-dihydro-1H-imidazo[4,5-c]pyridin-5(4H)-yl)(cyclopropyl)methanone]"
20,1000 to 5000 nM,O=C(c1oc(-c2ccccn2)nc1C(F)F)N1CCc2[nH]cnc2[C@@H]1c1ccc2ccccc2n1 [Example 66]
21,500 to 1000 nM,"Nc1cc(C(=O)N2CCc3[nH]cnc3C2c2ccc3ccccc3n2)n(C(F)F)n1 (stereo in doubt) [Example 267, (R)-(3-amino-1-(difluoromethyl)-1H-pyrazol-5-yl)(4-(quinolin-2-yl)-6,7-dihydro-1H-imidazo[4,5-c]pyridin-5(4H)-yl)methanone]"

# Source: US20250262201A1, “COMPOUNDS AND METHODS USEFUL FOR STABILIZING PHENYLALANINE HYDROXYLASE MUTATIONS” (Agios Pharmaceuticals, Inc., priority 2022, published 2025)
